Measurements from patent US11149047B2, “Aryl imidazoles for treatment of cancer” (Aptose Biosciences Inc., priority 2017, dated 2021).
Marks after values point to notes of the source that are not given here.

How the values were obtained:
Raji/COMPOUND IR cells = test: Cytotoxicity study, MTS cell proliferation assay, 5 days; type: cell-based, human; conditions: for RR (relative resistance): Raji/COMPOUND IR vs Raji; for IC50: Homo sapiens, Raji
Protocol: (§1) The human Burkitt lymphoma cell line Raji was obtained from the American Type Tissue Culture Collection and cultured in RPMI 1640 medium (ATCC) supplemented with 10% fetal bovine serum (ATCC,) at 37° C., 5% CO2. The COMPOUND I-resistant Raji (Raji/COMPOUND IR) cell line was generated by exposure to progressively higher concentrations of COMPOUND I over a period of 6 months. CAOV3 cells were obtained from ATCC and cultured in complete DMEM supplemented with 10% fetal bovine serum. MCF7 vector controlled and BRCA1 shRNA subclones were obtained from Dr. Simon Powell (Memorial Sloan-Kettering Cancer Center) and cultured in EMBM with 10% fetal bovine serum. MCF10A and hTERT-IMEC clones were obtained from Dr. Ben Ho Park (Johns Hopkins University). HCT116 BRCA2^+/+ cells and BRCA2^−/− cells were obtained from Dr. Samuel Aparicio (British Columbia Cancer Research Centre). PEO1 and PEO4 cells were obtained from Dr. Sharon Cantor (University of Massachusetts) and these cell lines were cultured under the same conditions as previously published. Sakai et al., Functional restoration of BRCA2 protein by secondary BRCA2 mutations in BRCA2-mutated ovarian carcinoma, Cancer Res. 2009; 69 (16):6381-6; Konishi et al., Mutation of a single allele of the cancer susceptibility gene BRCA1 leads to genomic instability in human breast epithelial cells, Proc. Natl. Acad. Sci. 2011; 108 (43):17773-8; Xu et al., CX-5461 is a DNA G-quadruplex stabilizer with selective lethality in BRCA1/2 deficient tumours, Nature Communications 2017; 8:14432, all of which are hereby incorporated by reference.
(§2) Cells were plated and treated with the indicated drugs in 96-well plates for 5 days. Cell viability was measured using CellTiter 96 AQueous one solution (MTS) cell proliferation assay purchased from Promega, and IC50 values were calculated using GraphPad Prism 6 Software.

Raji cells = test: as above; type: cell-based, human; conditions: Homo sapiens, Raji
Protocol: as §1, §2

[1] = tested on: PEO4 and PEO1 ovarian cancer cell lines; test: Sensitivity of BRCA2-proficient and -deficient cells; type: cell-based; conditions: FIG. 3D
Protocol: as §2
The finding that COMPOUND I produced DNA damage led to the investigation of whether cells deficient in homologous recombination were hypersensitive to this drug. The hypothesis that there would be synthetic lethality between COMPOUND I and BRCA1 deficiency using isogenic pairs of BRCA1-proficient and -deficient human cell lines was tested. […] The conclusion that BRCA1-deficient cells are hypersensitive to COMPOUND I was further supported by the results obtained in MCF7 E7 cells in which BRCA1 expression is stably knocked down by the expression of an shRNAi. […] Whether BRCA2-deficient cells are more sensitive to COMPOUND I was tested using the BRCA2-proficient and BRCA2-deficient ovarian cancer cell lines, PEO4 and PEO1, respectively. PEO1 is BRCA2-deficient and sensitive to cisplatin and a poly(ADP-ribose) polymerase inhibitor AG14361. PEO4 was derived from ascites at the time of relapse with cisplatin resistance and contains a secondary mutation that restores BRCA2 function. […] Thus, loss of either BRCA1 or BRCA2 function renders malignant cells hypersensitive to COMPOUND I.

[2] = tested on: gene expression in MV4-11 cells; test: RNA sequencing differential expression analysis; type: cell-based
Protocol: Treated MV4-11 cells were subjected to total RNA extraction (as for qRT-PCR analysis) and sequenced at the UCSD genomics core facility. RNA was processed using Illumina TruSeq and single end sequenced for 50-bp reads on the Illumina HiSeq4000. Data were analyzed by the McWeeny lab at Oregon Health and Science University (Portland, Oreg.). FASTQ files were assessed for read base distribution and sequence representation using FASTQC http://www.bioinformatics.babraham.ac.uk/projects/fastqc/. Reads were aligned to HG37 using SubRead v1.5.0-pl keeping uniquely mapped reads. Differential expression genes with less than 50 reads (across all 4 samples) were discarded. Raw data and processed files are available on GEO (https://www.ncbi.nlm.nih.gov/geo/query/acc.cgi?acc=GSE111949) accession number GSE111949.
To gain further insight into the pathways exploited by COMPOUND I to cause cell-cycle arrest and apoptosis, differential expression analysis was performed at both the mRNA and protein levels. MV4-11 cells were treated with either vehicle or 500 nmol/L COMPOUND I for 6 hours, and then gene expression was analyzed by RNA-seq. […] The RNA-seq analysis detected a 2-fold increase in KLF4 and a 4.5-fold increase in CDKN1A expression, which is validated by the qRT-PCR data with MV4-11 cells. The differentially regulated genes were analyzed for enriched pathways or GO (Gene Ontology) terms (FIG. 18A) utilizing the Broad Molecular Signatures database (http://software.broadinstitute.org/gsea/msigdb/index.jsp). As expected, apoptotic and cell-cycle pathways were enriched in the differentially expressed gene set. Unexpectedly, gene expression profiles after COMPOUND I treatment were also enriched in the DNA damage response (DDR) and endoplasmic reticulum (ER) stress/unfolded protein response pathways. […] Gene expression changes detected in MV4-11 cells raised the possibility that COMPOUND I could cause apoptosis by inducing DNA damage and activating cellular stress pathways, and/or by inhibition of expression of the MYC oncogene.

[3] = animals; cited from earlier work
[4] = tested on: BIK, BAD, MCL-1 in Raji cells; test: Western blot of proteins involved in apoptosis; type: cell-based, human; conditions: 0.5 μM, 24 h, n=3

In the case of `Cc1[nH]c2ccc(F)cc2c1-c1nc2c3cccnc3c3ncccc3c2[nH]1` [COMPOUND I, 2-(5-fluoro-2-methyl-1H-indol-3-yl)-1H-imidazo[4,5-f][1,10]phenanthroline], the “fold resistant to COMPOUND I (Raji/COMPOUND IR over sensitive Raji)” value (Raji/COMPOUND IR cells) is reported as 16.7±3.9 fold, the “RR (relative resistance)” value (Raji/COMPOUND IR cells; COMPOUND I + 5 nM Ko143) is reported as 10.9 ± 1.9^c and the “RR (relative resistance)” value (Raji/COMPOUND IR cells; COMPOUND I + 50 nM Ko143) is reported as 2.5 ± 0.7^a. For the same compound, the “RR (relative resistance)” value (Raji/COMPOUND IR cells; COMPOUND I alone) was 16.7 ± 3.9^b, the IC50 (Raji/COMPOUND IR cells; COMPOUND I + 5 nM Ko143, Raji/COMPOUND IR) was 853 ± 44 nM and the IC50 (Raji/COMPOUND IR cells; COMPOUND I + 50 nM Ko143, Raji/COMPOUND IR) was 201 ± 20.7 nM. For the same compound, the IC50 (Raji/COMPOUND IR cells; COMPOUND I alone, Raji/COMPOUND IR, mean ± SEM) was 1390 ± 94 nM, the IC50 (Raji/COMPOUND IR cells; Raji/COMPOUND IR cells) was 1390 ± 98.5 nM and the IC50 (Raji cells; 120 h, parental Raji cells, growth rate during 120 h exposure) was 91.9 ± 22.3 nM. It also gave an IC50 (Raji cells; COMPOUND I + 5 nM Ko143) of 98.3 ± 0.8 nM, an IC50 (Raji cells; COMPOUND I + 50 nM Ko143) of 103 ± 2.9 nM and an IC50 (Raji cells; COMPOUND I alone, mean ± SEM) of 105 nM. The “effect of restoration of BRCA2 function (PEO4 vs PEO1)” value [1] was “increased resistance”, the “genes differentially regulated (>2-fold change and P<0.05)” value ([2]; 500 nmol/L, 6 hours) was 1,643 genes and the genes downregulated ([2]; 500 nmol/L, 6 hours) was 1,227 genes. For the same compound, the genes upregulated ([2]; 500 nmol/L, 6 hours) was 416 genes, the “increase in BBC3” value ([2]; 500 nmol/L, 6 hours) was 3.95 fold and the “increase in CDKN1A expression” value ([2]; 500 nmol/L, 6 hours) was 4.5 fold. For the same compound, the “increase in KLF4 expression” value ([2]; 500 nmol/L, 6 hours) was 2 fold, the “increase in PMAIP1” value ([2]; 500 nmol/L, 6 hours) was 1.38 fold and the KIT expression ([2]; 6-hour treatment) was “decreased”. For the same compound, the MYC expression ([2]; 6 hours) was “downregulated”, the myelosuppression [3] was “did not produce myelosuppression” and the “BAD increase vs DMSO control” value [4] was 2.1±0.25 fold. The “BIK increase vs DMSO control” value [4] was 47.5±16.8% and the “MCL-1 decrease vs DMSO control” value [4] was 38.1±2.3%.
